Like-named read-outs stand apart in the source and are kept apart here.
What was measured:
Assay in all cases: KinomeScan kinase panel, single concentration 10 µM
Assay type in all cases: binding
[1] = target: T1, KinomeScan kinase panel (Homo sapiens, UniProt P00533, L861Q); details: EGFR(L861Q), 10 µM
T1 construct: purchased DiscoveRx (KinomeScan)

[2] = target: T2, KinomeScan kinase panel (Homo sapiens, UniProt Q32MK0); details: MLCK, 10 µM; read-out: score (%)
T2 construct: purchased DiscoveRx (KinomeScan)
T2 sequence (Q32MK0 1-819): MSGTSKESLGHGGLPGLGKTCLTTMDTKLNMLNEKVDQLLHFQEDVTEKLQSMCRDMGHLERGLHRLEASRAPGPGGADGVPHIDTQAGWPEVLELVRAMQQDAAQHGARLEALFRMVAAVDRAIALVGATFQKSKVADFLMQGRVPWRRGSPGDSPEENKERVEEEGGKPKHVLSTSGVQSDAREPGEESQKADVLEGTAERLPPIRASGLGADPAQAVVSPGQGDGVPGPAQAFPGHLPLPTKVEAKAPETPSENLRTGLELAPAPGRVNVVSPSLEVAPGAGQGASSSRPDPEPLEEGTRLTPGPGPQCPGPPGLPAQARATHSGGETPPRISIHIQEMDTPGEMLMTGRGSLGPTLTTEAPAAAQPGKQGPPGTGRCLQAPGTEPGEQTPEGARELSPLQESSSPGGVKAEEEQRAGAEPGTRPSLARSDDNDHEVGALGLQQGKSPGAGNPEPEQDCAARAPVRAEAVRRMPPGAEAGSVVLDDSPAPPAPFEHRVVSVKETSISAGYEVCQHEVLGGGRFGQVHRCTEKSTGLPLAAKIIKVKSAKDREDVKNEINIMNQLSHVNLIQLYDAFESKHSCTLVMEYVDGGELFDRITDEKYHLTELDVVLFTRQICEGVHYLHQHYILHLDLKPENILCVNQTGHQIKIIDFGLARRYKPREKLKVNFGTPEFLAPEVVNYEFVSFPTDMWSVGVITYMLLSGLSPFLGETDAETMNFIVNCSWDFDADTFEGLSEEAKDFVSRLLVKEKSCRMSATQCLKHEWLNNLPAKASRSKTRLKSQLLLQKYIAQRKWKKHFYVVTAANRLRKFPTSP

[3] = target: T3, KinomeScan kinase panel (Homo sapiens, UniProt Q02779); details: MLK2, 10 µM; read-out: score (%)
T3 construct: purchased DiscoveRx (KinomeScan)
T3 sequence (Q02779 whole entry): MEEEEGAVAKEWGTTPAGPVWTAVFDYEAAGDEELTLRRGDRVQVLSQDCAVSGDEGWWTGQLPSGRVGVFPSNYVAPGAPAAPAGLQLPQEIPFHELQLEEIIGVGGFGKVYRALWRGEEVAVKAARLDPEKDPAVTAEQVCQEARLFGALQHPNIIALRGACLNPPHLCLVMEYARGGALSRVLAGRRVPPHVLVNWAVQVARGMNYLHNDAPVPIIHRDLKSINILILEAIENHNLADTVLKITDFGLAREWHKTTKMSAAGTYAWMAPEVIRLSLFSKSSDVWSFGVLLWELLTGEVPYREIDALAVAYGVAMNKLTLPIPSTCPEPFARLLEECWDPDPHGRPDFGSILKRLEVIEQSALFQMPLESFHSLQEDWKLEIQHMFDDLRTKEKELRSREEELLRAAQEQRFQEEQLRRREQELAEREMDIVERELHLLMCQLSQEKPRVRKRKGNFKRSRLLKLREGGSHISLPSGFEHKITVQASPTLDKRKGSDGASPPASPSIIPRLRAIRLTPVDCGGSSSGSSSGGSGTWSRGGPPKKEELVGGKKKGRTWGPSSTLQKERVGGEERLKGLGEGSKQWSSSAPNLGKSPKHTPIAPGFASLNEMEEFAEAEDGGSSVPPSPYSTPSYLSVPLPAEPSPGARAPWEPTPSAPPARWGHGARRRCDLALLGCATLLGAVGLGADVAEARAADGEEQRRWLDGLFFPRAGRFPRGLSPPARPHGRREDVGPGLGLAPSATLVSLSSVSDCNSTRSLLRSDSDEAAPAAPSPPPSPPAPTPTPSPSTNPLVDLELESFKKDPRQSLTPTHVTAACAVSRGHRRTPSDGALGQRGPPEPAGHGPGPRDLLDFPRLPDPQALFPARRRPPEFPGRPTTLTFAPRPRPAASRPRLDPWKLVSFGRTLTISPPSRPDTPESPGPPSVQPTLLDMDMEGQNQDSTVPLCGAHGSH

[4] = target: T4, KinomeScan kinase panel (Homo sapiens, UniProt P42681); details: kinase TXK; 10 µM; read-out: score (%)
T4 construct: purchased DiscoveRx (KinomeScan)
T4 sequence (P42681 1-527): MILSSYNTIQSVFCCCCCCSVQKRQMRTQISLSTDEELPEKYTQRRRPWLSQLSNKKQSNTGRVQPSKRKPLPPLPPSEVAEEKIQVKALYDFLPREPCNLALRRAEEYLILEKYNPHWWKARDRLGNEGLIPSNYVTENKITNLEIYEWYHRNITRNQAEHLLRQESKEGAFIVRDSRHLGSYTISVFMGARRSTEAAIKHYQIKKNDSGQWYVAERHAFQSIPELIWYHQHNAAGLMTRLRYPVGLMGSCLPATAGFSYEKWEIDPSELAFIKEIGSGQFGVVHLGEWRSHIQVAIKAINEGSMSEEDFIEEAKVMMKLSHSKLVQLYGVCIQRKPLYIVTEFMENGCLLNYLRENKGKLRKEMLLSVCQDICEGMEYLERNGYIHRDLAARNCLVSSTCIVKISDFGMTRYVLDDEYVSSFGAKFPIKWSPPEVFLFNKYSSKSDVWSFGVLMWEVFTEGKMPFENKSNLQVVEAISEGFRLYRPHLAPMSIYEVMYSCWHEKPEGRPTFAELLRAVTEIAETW

[5] = target: T5, KinomeScan kinase panel (Homo sapiens, UniProt O94921); details: PFTK1, 10 µM
T5 construct: purchased DiscoveRx (KinomeScan)
T5 sequence (O94921 whole entry): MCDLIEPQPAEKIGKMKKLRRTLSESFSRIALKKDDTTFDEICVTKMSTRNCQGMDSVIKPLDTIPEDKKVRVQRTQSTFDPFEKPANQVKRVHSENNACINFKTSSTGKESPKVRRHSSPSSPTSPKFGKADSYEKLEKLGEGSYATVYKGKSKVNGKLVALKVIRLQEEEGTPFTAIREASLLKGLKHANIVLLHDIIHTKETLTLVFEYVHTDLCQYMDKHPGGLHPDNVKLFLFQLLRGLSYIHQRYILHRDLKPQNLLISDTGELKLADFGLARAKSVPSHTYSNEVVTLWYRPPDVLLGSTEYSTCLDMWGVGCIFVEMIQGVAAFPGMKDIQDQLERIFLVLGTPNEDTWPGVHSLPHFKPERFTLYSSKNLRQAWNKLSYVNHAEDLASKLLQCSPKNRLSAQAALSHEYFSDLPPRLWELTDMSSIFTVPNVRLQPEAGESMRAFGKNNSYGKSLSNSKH

[6] = target: T6, KinomeScan kinase panel (Homo sapiens, UniProt Q13554); details: CAMK2B, 10 µM; read-out: score (%)
T6 construct: purchased DiscoveRx (KinomeScan)
T6 sequence (Q13554 whole entry): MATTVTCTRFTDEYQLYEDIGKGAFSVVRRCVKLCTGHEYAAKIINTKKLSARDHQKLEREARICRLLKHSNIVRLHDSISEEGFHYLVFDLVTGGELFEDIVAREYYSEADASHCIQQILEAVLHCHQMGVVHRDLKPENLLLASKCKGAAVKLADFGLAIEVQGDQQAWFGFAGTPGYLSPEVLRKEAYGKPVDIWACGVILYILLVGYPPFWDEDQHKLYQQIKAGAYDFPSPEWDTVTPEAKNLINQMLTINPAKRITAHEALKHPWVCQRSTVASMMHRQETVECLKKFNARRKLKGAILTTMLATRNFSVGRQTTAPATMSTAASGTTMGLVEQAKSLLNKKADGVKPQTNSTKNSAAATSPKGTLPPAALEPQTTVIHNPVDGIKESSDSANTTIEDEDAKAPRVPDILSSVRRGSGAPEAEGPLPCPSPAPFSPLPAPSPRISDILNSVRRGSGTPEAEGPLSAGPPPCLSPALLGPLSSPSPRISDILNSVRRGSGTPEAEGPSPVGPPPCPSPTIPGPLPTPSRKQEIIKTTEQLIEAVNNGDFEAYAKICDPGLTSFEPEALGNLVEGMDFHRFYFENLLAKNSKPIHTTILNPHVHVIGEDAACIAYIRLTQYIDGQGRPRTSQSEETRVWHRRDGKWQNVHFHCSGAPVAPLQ

[7] = target: T7, KinomeScan kinase panel (Homo sapiens, UniProt Q7L7X3); details: read-out: score (%)
T7 construct: purchased DiscoveRx (KinomeScan)
T7 sequence (Q7L7X3 1-1001): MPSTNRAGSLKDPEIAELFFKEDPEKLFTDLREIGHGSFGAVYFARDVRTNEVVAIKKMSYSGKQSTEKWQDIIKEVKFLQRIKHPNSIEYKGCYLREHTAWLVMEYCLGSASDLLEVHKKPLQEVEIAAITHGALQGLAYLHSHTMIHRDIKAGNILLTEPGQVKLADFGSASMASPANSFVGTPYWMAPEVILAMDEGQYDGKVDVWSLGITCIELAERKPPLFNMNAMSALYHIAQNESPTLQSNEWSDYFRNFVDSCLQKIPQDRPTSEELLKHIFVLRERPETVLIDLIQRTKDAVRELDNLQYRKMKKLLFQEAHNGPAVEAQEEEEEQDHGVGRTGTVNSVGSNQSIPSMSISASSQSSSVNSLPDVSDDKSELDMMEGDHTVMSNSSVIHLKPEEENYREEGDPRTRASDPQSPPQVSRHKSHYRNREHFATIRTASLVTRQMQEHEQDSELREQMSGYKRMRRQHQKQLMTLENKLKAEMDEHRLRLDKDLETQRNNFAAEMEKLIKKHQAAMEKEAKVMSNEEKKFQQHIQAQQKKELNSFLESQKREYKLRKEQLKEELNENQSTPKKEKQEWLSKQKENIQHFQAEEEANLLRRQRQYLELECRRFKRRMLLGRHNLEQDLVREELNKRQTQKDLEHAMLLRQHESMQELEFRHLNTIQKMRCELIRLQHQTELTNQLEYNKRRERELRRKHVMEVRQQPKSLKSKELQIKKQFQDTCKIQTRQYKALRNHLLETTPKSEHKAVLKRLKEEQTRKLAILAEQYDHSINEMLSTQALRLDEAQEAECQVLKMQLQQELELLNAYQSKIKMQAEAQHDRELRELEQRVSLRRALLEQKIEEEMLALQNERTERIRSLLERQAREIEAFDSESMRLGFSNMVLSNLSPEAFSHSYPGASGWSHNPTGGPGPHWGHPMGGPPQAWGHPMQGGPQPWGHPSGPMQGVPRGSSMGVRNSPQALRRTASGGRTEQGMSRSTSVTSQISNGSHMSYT

T1 sequence (P00533 25-1210 L861Q): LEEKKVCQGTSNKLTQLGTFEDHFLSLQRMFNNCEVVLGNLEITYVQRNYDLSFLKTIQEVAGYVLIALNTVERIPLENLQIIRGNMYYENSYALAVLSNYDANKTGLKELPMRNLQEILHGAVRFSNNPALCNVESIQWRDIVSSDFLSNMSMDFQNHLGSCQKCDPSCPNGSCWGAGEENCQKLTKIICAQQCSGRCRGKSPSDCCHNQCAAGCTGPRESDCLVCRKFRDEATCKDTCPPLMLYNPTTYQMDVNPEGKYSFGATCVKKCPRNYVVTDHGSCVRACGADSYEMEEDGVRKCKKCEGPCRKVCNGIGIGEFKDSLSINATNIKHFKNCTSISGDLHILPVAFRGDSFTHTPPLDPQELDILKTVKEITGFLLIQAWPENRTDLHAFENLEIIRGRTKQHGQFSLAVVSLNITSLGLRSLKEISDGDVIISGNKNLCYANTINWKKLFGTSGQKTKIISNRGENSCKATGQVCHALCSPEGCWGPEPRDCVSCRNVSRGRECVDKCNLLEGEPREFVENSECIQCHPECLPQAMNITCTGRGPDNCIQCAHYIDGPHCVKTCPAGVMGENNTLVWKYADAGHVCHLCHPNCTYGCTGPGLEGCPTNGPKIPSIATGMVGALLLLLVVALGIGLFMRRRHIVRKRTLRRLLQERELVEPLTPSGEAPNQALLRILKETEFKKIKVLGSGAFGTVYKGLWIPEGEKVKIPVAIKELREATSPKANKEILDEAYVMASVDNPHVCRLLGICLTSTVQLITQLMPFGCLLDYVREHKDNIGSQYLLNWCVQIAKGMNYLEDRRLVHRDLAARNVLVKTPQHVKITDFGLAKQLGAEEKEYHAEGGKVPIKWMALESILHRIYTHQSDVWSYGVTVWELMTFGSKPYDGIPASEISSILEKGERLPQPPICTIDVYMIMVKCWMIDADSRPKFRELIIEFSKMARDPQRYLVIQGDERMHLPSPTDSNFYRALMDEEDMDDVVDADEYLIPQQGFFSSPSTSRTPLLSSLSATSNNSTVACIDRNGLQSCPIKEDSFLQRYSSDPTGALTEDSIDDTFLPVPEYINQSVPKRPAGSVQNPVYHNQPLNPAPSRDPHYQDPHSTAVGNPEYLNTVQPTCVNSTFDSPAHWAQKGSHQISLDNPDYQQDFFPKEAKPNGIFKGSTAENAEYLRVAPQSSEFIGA

CCN1CCN(Cc2ccc(NC(=O)c3ccc(C)c(NC(=O)c4cncc(-c5cccs5)c4)c3)cc2C(F)(F)F)CC1 [ALW-II-41-27]
score (%) [1]: 0% | remaining binding at 10 µM [2]: > 30% | remaining binding at 10 µM [3]: > 30% | remaining binding at 10 µM [4]: 1.8% | score (%) [5]: nb (Hits values higher than 30% were considered negative (no binding: nb)) | remaining binding at 10 µM [6]: > 30% | remaining binding at 10 µM ([7]; kinase TAOK1, 10 µM): > 30%

CCN1CCN(Cc2ccc(NC(=O)c3ccc(C)c(/C=C/c4cnc5[nH]ccc5c4Cl)c3)cc2C(F)(F)F)CC1 [HG-6-63-01, (E)-3-(2-(4-chloro-1H-pyrrolo[2,3-b]pyridin-5-yl)vinyl)-N-(4-((4-ethylpiperazin-1-yl)methyl)-3-(trifluoromethyl)phenyl)-4-methylbenzamide]
score (%) [1]: 0% | remaining binding at 10 µM [2]: 5.9% | remaining binding at 10 µM [3]: 20% | remaining binding at 10 µM [4]: 0.9% | score (%) [5]: nb (Hits values higher than 30% were considered negative (no binding: nb)) | remaining binding at 10 µM [6]: > 30% | remaining binding at 10 µM ([7]; TAOK1, 10 µM): 6.5%

CCN1CCN(Cc2ccc(NC(=O)c3ccc(C)c(C#Cc4cccnc4)c3)cc2C(F)(F)F)CC1 [XMD15-44]
score (%) [1]: 0.2% | remaining binding at 10 µM [2]: > 30% | remaining binding at 10 µM [3]: > 30% | remaining binding at 10 µM [4]: 0.3% | score (%) [5]: 0.85% | remaining binding at 10 µM [6]: > 30% | remaining binding at 10 µM ([7]; kinase TAOK1, 10 µM): 0.25%
